Measurements taken from patent publication US9326511B2, “Methods of inhibiting microbial biofilms” (priority 2008, dated 2016).
≈ marks a conversion by molar mass, not a printed value. Entries after “also recorded” stand apart in the source; their conditions may differ. Like-named read-outs stand apart in the source and are kept apart here. Marks after values point to notes of the source that are not given here. Each block holds one molecule with its values, some of them ahead of it.

What was measured:
E. coli cells = assay: Binding of compounds with bacterial cells (spectrofluorimetric analysis of cell lysates); settings: 5 min incubation
Procedure: […] At the end of the incubation period, the cells were sedimented by centrifugation to remove the fraction of unbound test compound and the cell pellet was resuspended in 2 ml of 2% SDS to obtain cell lysates. After overnight incubation with SDS, the amount of cell-bound test compound was estimated by spectrofluorimetric analysis of the cell lysates. The concentration of the compounds in the cell lysates was calculated by measuring the intensities at the maximum of the emission fluorescence spectrum and interpolating the data on a calibration plot. The amount of cell-bound test compound was expressed as nmoles of compound per mg of cell protein. The protein concentration was determined by the method of Lowry (Lowry et al., 1951, J. Biol. Chem. 193:265-275).
All experiments were run in triplicate and the results represent the average of 3 determinations with standard deviations.

[1] = Chemical stability, qualitative stress tests (HPLC, LC-MS); type: physicochemical; settings: solid, aqueous solution, PBS, 7 days each at 50, 70 and 90° C.
Procedure: The following HPLC methodology was established for the analysis of the exemplary compounds of the invention.
The method involves detection by UV at a wavelength of 420 nm, which is very specific for these compounds. In order to monitor impurities not related to the porphyrin structure (and therefore not absorbing at 420 nm) UV spectra of the whole chromatograms were also recorded between 200 nm and 700 nm by DAD (diode array detector) in certain experiments. • Column: Zorbax Phenyl, 250×4.6 mm, 5 µm • Eluent A: 1.5 g sodium dodecylsulfate+1 mL formic acid in 1000 mL water • Eluent B: 1.5 g sodium dodecylsulfate+1 mL formic acid in 200 mL water+800 mL tetrahydrofurane • Gradient:
• Flow rate: 0.4 mL/min • Detection: 420 nm • Column temperature: 25° C. • Injection volume: 10 μl • Solutions: Porphyrin derivatives were dissolved in eluent A to give a final concentration of approximately 0.3 mg/ml.
Qualitative stress tests were undertaken on the exemplary compounds of the invention. Analysis was undertaken by HPLC & LC-MS. The compounds were stress tested in solid form, in an aqueous solution and a solution made up in phosphate-buffered saline buffer. The samples were initially incubated for 7 days at 50° C. and a sample removed for testing. The samples were then incubated for a further 7 days at 70° C., samples removed as before and the samples incubated further for 7 days at 90° C. HPLC analysis of freshly prepared solutions was undertaken and compared to the samples after 7, 14 and 21 days incubation. A visual comparison of the chromatograms was then undertaken and the content of the main products and by-products as area percentage values determined (see FIG. 4).

S. aureus SH1000 = assay: Planktonic MIC by broth microdilution (BSAC guidelines); type: cell-based, Staphylococcus aureus
Procedure: (§1) Methods: MICs were determined for planktonic cultures by broth microdilution according to British Society for Antimicrobial Chemotherapy (BSAC) guidelines. Biofilm MICs (bMIC) and minimum biofilm eradication concentrations (MBECs) were determined using the Calgary biofilm device. The effect of Compound 10 on the viability of cold culture cells was determined by growing S. aureus SH1000 to early exponential phase at 37° C. and resuspending the cells in pre-chilled media, where they were maintained in the presence and absence of Compound 10 and control agents. The effect of Compound 10 on slow growing cells expressing the stringent response was also determined by growing cultures to early log phase and the stringent response induced by the addition of the isoleucyl-tRNA synthetase inhibitor mupirocin. Compound 10 and control agents were then added and samples recovered for viable cell determinations.

[2] = system: S. aureus SH1000 biofilms; assay: Biofilm MIC and minimum biofilm eradication concentration, Calgary Biofilm Device; type: cell-based, Staphylococcus aureus; settings: Staphylococcus aureus, SH1000BIOFILMS, read-out: bMIC
Procedure: as §1
Biofilm MICs and minimum biofilm eradication concentrations (MBEC) were determined in the Calgary Biofilm Device (Nunc Inc, Roskilde, Denmark) as described by Miller et al., 2005. This involves the following steps. Aliquots (200 μL) of exponential phase cultures of strain SH1000 were added to each well of a 96-well microtitre tray. The lid assembly, which has 96 polystyrene pegs corresponding to each well, was then replaced and the system incubated for 24 hours at 37° C. on a rocking platform. Following this a biofilm of approximately 10^7 cfu matured on each peg. The lid was then washed twice in phosphate-buffered saline (PBS) to remove residual planktonic growth and then placed into a microtitre tray with fresh media containing doubling dilutions of the test antibiotic. The system was then incubated for 24 hours at 37° C. on a rocking platform. The MIC was defined as the lowest concentration of antibiotic completely inhibiting visible growth after this incubation. After the MIC was recorded, the lid assembly was again washed twice in PBS to remove planktonic cells and remaining antibiotic and then placed into fresh drug-free media. The system was incubated for a further 24 hours and the MBEC was defined as the lowest concentration of antibiotic completely inhibiting the re-establishment of planktonic growth.

S. aureus 8325-4 = settings: previous studies (Oliva et al., 2003); cited from earlier work
[3] = system: stringent S. aureus SH1000 cultures; assay: Time-kill against cultures expressing the stringent response (induced with mupirocin); type: cell-based, Staphylococcus aureus; settings: stringent response induced with mupirocin, agents at 4×MIC
Procedure: as §1
When nutrients become limiting for growth bacteria adjust their metabolism from one that supports growth to one that provides for long survival in the absence of nutrients. In many bacteria a key facilitator of this physiological switch, known as the stringent response, is accumulation of guanosine […] and pentaphosphate (Traxler et al., 2008). The antibiotic mupirocin is a strong inducer of the stringent response in S. aureus and effectively causes starvation of charged isoleucyl tRNA by potent inhibition of isoleucy ItRNA synthetase (IRS) (Oliva et al., 2003). The activity of XF drugs against S. aureus SH1000 prevented from growing by the addition of mupirocin (Oliva et al., 2003), was therefore examined (FIG. 10). As an alternative method for arresting growth, bacteria were suspended in cold growth medium (Mascio et al., 2007) and the bactericidal activity of XF drugs was also determined under these conditions (FIG. 11).
(§2) The anti-staphylococcal activities of Compound 10, Compound 12 and a range of comparator agents against slow-growing cultures of Staphylococcus aureus were studied using standard time-kill methodology (Oliva et al. 2003, Hobbs et al. 2008). Staphylococcus aureus SH1000 cultures were grown to early exponential phase (OD600 nm of 0.2) in Mueller-Hinton broth (MHB) before being exposed to antibacterial agents at 4×MIC. An untreated culture served as the negative control. The experiments were undertaken in triplicate.
The antibiotic mupirocin is a strong inducer of the stringent response in S. aureus and causes starvation of charged isoleucyl tRNA by potent inhibition of isoleucyl tRNA synthetase (IRS) (Oliva et al. 2003, Cassels et al. 1995) Stringency was induced in SH1000 cultures by adding mupirocin (4 mg/L) to cells in the early exponential growth phase (OD600 nm of 0.2) (Oliva et al. 2003, Cassels et al. 1995). Cultures were incubated with mupirocin for 30 minutes before sampling began. Cultures were maintained at 37° C., and samples were taken at 30 minute intervals for 300 minutes, serially diluted in phosphate buffered saline (PBS) and diluted culture was spread on Mueller-Hinton agar and was incubated at 37° C. for 18-24 hours before the number of CFU were counted.

[4] = system: S. aureus SH1000 cold cultures; assay: Time-kill against cold cultures (4° C.); type: cell-based, Staphylococcus aureus; settings: cold culture held at 4° C. for 5 hours, agents at 4×MIC
Procedure: as §1
The effect of XF drugs on the viability of cold culture cells was determined by growing S. aureus SH1000 to early exponential phase at 37° C., harvesting the cells by centrifugation (5,000×g, 10 min.) and resuspending them in pre-chilled media where they were maintained in the presence and absence of XF drugs and control agents for 5 hours. […] (FIG. 11).
as §2
Cold cultures were prepared by growing SH1000 cells to early exponential phase (OD600 nm of 0.2) at 37° C. Cultures were then centrifuged and the cell pellet was resuspended in MHB pre-chilled to 4° C. The killing kinetics of antimicrobial agents were studied as described in the section above, with the exception that cultures were maintained at 4° C. over the 5 hour sampling period.

staphylococci = settings: cited from earlier work; for MIC Values: literature value (Critchley et al. 2003)
[5] = planktonic S. aureus SH1000 (Table 6)

SMILES: CN(C)CCC[N+](C)(C)CCCOc1ccc(-c2c3nc(cc4ccc([nH]4)c(-c4ccc(OCCC[N+](C)(C)CCCN(C)C)cc4)c4nc(cc5ccc2[nH]5)C=C4)C=C3)cc1.[Cl-].[Cl-] [Compound 8, 5,15-bis-(4-{3-[(3-Dimethylamino-propyl)-dimethyl-ammonio]-propyloxy}-phenyl)-porphyrin dichloride]
- Bound compound (E. coli cells; 0.01 μM compound, 0 washings): 0.024 ± 0.01 nmoles/mg cell proteins
- Bound compound (E. coli cells; 0.01 μM compound, 3 washings): 0.009 ± 0.001 nmoles/mg cell proteins
- Bound compound (E. coli cells; 0.1 μM compound, 0 washings): 0.056 ± 0.02 nmoles/mg cell proteins
- Bound compound (E. coli cells; 0.1 μM compound, 3 washings): 0.030 ± 0.02 nmoles/mg cell proteins
- Bound compound (E. coli cells; 0.5 μM compound, 0 washings): 0.522 ± 0.2 nmoles/mg cell proteins
- Bound compound (E. coli cells; 0.5 μM compound, 3 washings): 0.274 ± 0.15 nmoles/mg cell proteins
- Bound compound (E. coli cells; 1 μM compound, 0 washings): 3.670 ± 0.7 nmoles/mg cell proteins
- Bound compound (E. coli cells; 1 μM compound, 3 washings): 2.230 ± 0.8 nmoles/mg cell proteins
- Chemical stability under stress [1]: less stable than Compounds 10 and 12

- MIC (S. aureus SH1000; Staphylococcus aureus, planktonic S. aureus SH1000 (Table 5), read-out: MIC): 16 µg/mL (≈ 116 µM)
- MIC (S. aureus SH1000; [5]): 16 µg/mL (≈ 116 µM)
SMILES: C[C@@H]1O[C@@H]1P(=O)(O)O [Fosfomycin]
- MIC ([2]; 24 h, biofilm MIC, S. aureus SH1000, Calgary Biofilm Device, 24 hours (Table 6)): 8 µg/mL (≈ 57.9 µM)
- MIC ([2]; biofilm MIC, S. aureus SH1000, Calgary device (Example H)): 8 µg/mL (≈ 57.9 µM)
- effect of the stringent response on bactericidal activity (S. aureus 8325-4): completely abolishes the bactericidal activity
- viability / bactericidal activity in time-kill (in words) [3]: no loss of viability; also recorded: completely attenuated
- viability / bactericidal activity in time-kill (in words) [4]: no loss of viability

SMILES: CN[C@H](CC(C)C)C(=O)N[C@H]1C(=O)N[C@@H](CC(N)=O)C(=O)N[C@H]2C(=O)N[C@H]3C(=O)N[C@H](C(=O)N[C@H](C(=O)O)c4cc(O)cc(O)c4-c4cc3ccc4O)[C@H](O)c3ccc(c(Cl)c3)Oc3cc2cc(c3O[C@@H]2O[C@H](CO)[C@@H](O)[C@H](O)[C@H]2O[C@H]2C[C@](C)(N)[C@H](O)[C@H](C)O2)Oc2ccc(cc2Cl)[C@H]1O [Vancomycin]
- MIC (S. aureus SH1000; Staphylococcus aureus, SH1000): 1 µg/mL (≈ 0.69 µM)
- MIC (S. aureus SH1000; [5]): 1 µg/mL (≈ 0.69 µM)
- MBC Values (staphylococci; literature value (Biavasco et al. 1997; Fuchs et al. 2002)): 4-16^b μg/mL
- MIC Values (staphylococci): 1^a μg/mL
- MIC ([2]; 24 h): 2 µg/mL (≈ 1.38 µM)
- MIC [2]: 2 µg/mL (≈ 1.38 µM)
- effect of the stringent response on bactericidal activity (S. aureus 8325-4): completely abolishes the bactericidal activity
- viability / bactericidal activity in time-kill (in words) [3]: no loss of viability
- viability / bactericidal activity in time-kill (in words) [4]: no loss of viability; also recorded: abolished

SMILES: CC(=O)NC[C@H]1CN(c2ccc(N3CCOCC3)c(F)c2)C(=O)O1 [Zyvox ® (Linezolid), Linezolid]
- MIC Values (staphylococci): 4^a μg/mL

SMILES: N[C@@H]1CON=C1O [cycloserine]
- effect of the stringent response on bactericidal activity (S. aureus 8325-4): completely abolishes the bactericidal activity
